Reference: publication PMC9260667, “Thioredoxin Reductase Inhibitors as Potential Antitumors: Mercury Compounds Efficacy in Glioma Cells” (Frontiers in Molecular Biosciences, 2022)
pIC50: −log10 of the molar value.

Assays:
[1] = molecular target: T1, Trx (Mus musculus, UniProt P97493); format: cell-based; details: mitochondria, GL261 exposed 24 h
T1 construct: These lysates were compared to a control group and used to quantify TrxR and Trx activity and expression; These fractions were used to quantify TrxR and Trx activity and expression; endogenous in cells; host or cells: GL261 mouse glioma cells (whole lysate, cytosolic and mitochondrial fractions)
T1 sequence (P97493 60-166): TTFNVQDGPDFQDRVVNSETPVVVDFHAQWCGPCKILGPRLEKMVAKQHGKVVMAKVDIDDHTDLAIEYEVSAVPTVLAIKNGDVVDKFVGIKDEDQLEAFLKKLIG
Description: (§1) Total cell lysates were prepared according to previous protocols ([Branco et al., 2014]). 1 × 10^6 cells were plated in […] culture dishes incubated at 37°C until reaching 70–80% confluence. At this point, the culture medium was refreshed and TmHg and EtHg (0.5; 1; 2 µM) were added and incubated at 37°C for 24 h, after which cells were collected by trypsinization and washed with PBS 1x. Subsequently, the pellet was resuspended in lysis buffer (25 mM TrisCl, pH 7.5; 100 mM NaCl; 2.5 mM EDTA; 2.5 mM EGTA; 20 mM NaF, 1 mM sodium orthovanadate, 20 mM sodium pyrophosphate; 20 mM of sodium β-glycerophosphate, 0.5% Triton X-100, and 1 tablet of protease inhibitor cocktail per 10 ml; Roche) vortexed and frozen at −20°C. These lysates were compared to a control group and used to quantify TrxR and Trx activity and expression as described below.
(§2) To obtain the mitochondrial and cytosolic fractions, after exposure to Hg compounds cells were washed and suspended in mitochondrial isolation buffer (210 mM mannitol, 70 mM sucrose, 1 mM EDTA, 10 mM Hepes–NaOH, and pH 7.5), containing protease inhibitor cocktail (Roche). Cells were disrupted with a Teflon pestle and then centrifuged at 600 g for 10 min at 4°C. The resulting nuclear pellets were discarded, and the supernatant was further centrifuged at 13,000 g and 4°C for 15 min, to obtain the mitochondrial pellets and the supernatant soluble fraction. Mitochondrial pellets were treated with cell lysis buffer as described above for whole-cell lysates and the supernatant fraction was further centrifuged at 100,000 g and 4°C for 1 h, to produce the cytosolic fraction ([Branco et al., 2014]). These fractions were used to quantify TrxR and Trx activity and expression as described below.
(§3) The enzymatic activity of TrxR and Trx was determined according to the insulin end-point assay described by [Arnér and Holmgren (2000)] with modifications ([Branco et al., 2014]).
(§4) In parallel, control wells were prepared to contain the same reagents previously mentioned apart from Trx. After the incubation period, 250 µL of a 1 mM DTNB solution in 6 M guanidine-HCL (pH 8.0) was added to wells, and absorbance was measured at 412 nm in a microplate reader (Zenyth 3100, Anthos Labtec Instruments). […] The same procedure was done for the determination of Trx activity, but the samples were incubated with 100 nM of recombinant rat TrxR (IMCO Corp, Sweden) instead of Trx ([Branco et al., 2014]).

[2] = molecular target: T2, Trx (Mus musculus, UniProt P10639); format: cell-based; details: cytosol, GL261 exposed 24 h
T2 construct: These lysates were compared to a control group and used to quantify TrxR and Trx activity and expression; These fractions were used to quantify TrxR and Trx activity and expression; endogenous in cells; host or cells: GL261 mouse glioma cells (whole lysate, cytosolic and mitochondrial fractions)
T2 sequence (P10639 whole entry): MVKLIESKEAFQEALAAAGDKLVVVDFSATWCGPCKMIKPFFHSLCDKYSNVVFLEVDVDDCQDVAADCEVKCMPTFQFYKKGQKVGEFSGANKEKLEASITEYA
Description: as §1, §2, §3, §4

Compound `C[CH2][Hg][S]c1ccccc1C(=O)[O-].[Na+]` [TmHg, thimerosal] has a pIC50 [1] of 5.80 and a pIC50 [2] of 5.92.
